According to paper PMC9098913, “In vitro reconstitution of Escherichia coli divisome activation” (Nature Communications, 2022):
Where two headings read alike, the source gives them in different places.

Columns and labels:
[1] = Membrane binding of FtsA by QCM-D; conditions: for amount of membrane-bound protein saturated at / Kd: QCM-D; for Kd: Hill fit, 5th harmonic, DOPC:DOPG 67:33 mol%, pH 7.4, 150 mM KCl, 5 mM MgCl2, 2 mM ATP, 2 mM GTP, 25 °C, n = 2, upper estimate
Description: To quantify the intrinsic membrane-affinity of the two versions of FtsA, we used Quartz Crystal Microbalance with Dissipation (QCM-D) and measured the hydrated mass of adsorbed protein on a membrane surface.
QCM-D experiments were performed with the QSense Analyzer from Biolin Scientific, equipped with silica-coated sensor (QSX 303). The sensors were cleaned for 10 s in a Zepto plasma cleaner, mounted in the QCM-D chambers and the acquisition of the experiment was first performed in the reaction buffer (50 mM Tris-HCl [pH 7.4], 150 mM KCl and 5 mM MgCl2). The supported lipid membrane was formed by rupturing 0.5 mM small unilamellar vesicles (SUVs) in the presence of MgCl2. The lipids used were 1,2-dioleoyl-sn-glycero-3-phosphocholine (DOPC) and 1,2-dioleoyl-sn-glycero-3-phospho-(1′-rac-glycerol) (DOPG) at a ratio of 67:33 mol%. After bilayer formations, the reaction buffer supplemented with 2 mM ATP, 2 mM GTP and 1 mM DTT was injected and the signal was recorded until a stable equilibrium was reached. Subsequently, increasing concentrations of FtsA were injected in the QCM-D chamber and changes in frequency and dissipation were monitored in real-time. The flow rate used in all experiments was 25 µl min^−1, and the temperature was set to 25 °C. To estimate the membrane-binding affinity, we extracted the frequency changes of the 5th acoustic harmonic for different FtsA concentrations and fitted a Hill equation y=S+(E−S)⋅(x^n/k^n+x^n) , where S is the starting point, E the end point, n is the Hill coefficient and k the dissociation constant. The measured binding affinity is an upper estimate, because QCM-D accounts not only on the dry molecular mass, but also on the hydration shell of the molecular assembly.

FtsZ [2] = conditions: 1.25 µM FtsZ, FtsA 0.1–0.8 µM
Description: Additionally, the reaction chamber contained 4 mM ATP and 4 mM GTP, as well as a scavenging system to minimize photobleaching effects: 30 mM d-glucose, 0.050 mg ml^−1 Glucose Oxidase, 0.016 mg ml^−1 Catalase, 1 mM DTT and 1 mM Trolox. Prior addition of all components a corresponding buffer volume was removed from the chamber to obtain a total reaction volume of 100 µl. The dynamic protein pattern was monitored by time-lapse TIRF microscopy at one frame per 2 s and 50 ms exposure time.
Treadmilling dynamics, were quantified using an automated image analysis protocol previously developed by our group. To visualize colocalization of the co-treadmilling FtsZ & FtsA filaments, we used dual-colour videos obtained at an acquisition rate of one frame per 2 s. The two channels were aligned using FIJI’s 3TP align plugin. Both channels were then subjected to the image subtraction protocol and colocalization was measured as described above.

FtsZ [3] = conditions: for FtsZ autocorrelation T: mean; for Autocorrelation Decay Tau: Fig. S2i, + FtsN
Description: To measure reorganization dynamics of FtsZ filaments, we used a temporal correlation analysis based on the Image CorrelationJ 1o plugin. We quantified the PCC between the first frame to subsequent frames with increasing time lag (∆t). The decrease in the PCC was plotted against ∆t to obtain autocorrelation curves. Slower decay indicates more persistent structures. The rates of decay were extracted by fitting monoexponential decay to the autocorrelation curves y=a⋅e^−b⋅t+k , where a is the starting point, b is the decay rate and k is the final offset. The half time of the monoexponential decay was calculated via the decay rate.
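Throughout, for Autocorrelation Decay Tau: FtsZ filament patterns imaged by time-lapse TIRF microscopy, one frame per 2 s, with ATP and GTP, Pearson correlation of first frame versus later frames, monoexponential fit, slower decay means persistent structures.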
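Throughout, for FtsZ autocorrelation T: FtsZ filament patterns imaged by time-lapse TIRF microscopy, one frame per 2 s, with ATP and GTP, Pearson correlation of first frame versus later frames, monoexponential fit, slower decay means persistent structures.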
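Throughout, for FtsZ autocorrelation: FtsZ filament patterns imaged by time-lapse TIRF microscopy, one frame per 2 s, with ATP and GTP, Pearson correlation of first frame versus later frames, monoexponential fit, slower decay means persistent structures.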

Molecule	Mean of QCM-D experiments ([1]; 0.01 µM)	Mean of QCM-D experiments ([1]; 0.05 µM)	Mean of QCM-D experiments ([1]; 0.10 µM)	amount of membrane-bound protein saturated at [1]	Kd [1]	effect on FtsZ treadmilling velocity (FtsZ [2])	FtsZ autocorrelation (FtsZ [3]; 0.1 µM FtsA, Exp. 1)	FtsZ autocorrelation (FtsZ [3]; 0.1µM FtsA, Exp. 2)	FtsZ autocorrelation T (FtsZ [3]; 0.10 µM FtsA)	FtsZ autocorrelation (FtsZ [3]; 0.2 µM FtsA, Exp. 1)	FtsZ autocorrelation (FtsZ [3]; 0.2µM FtsA, Exp. 2)	FtsZ autocorrelation T (FtsZ [3]; 0.20 µM FtsA)	FtsZ autocorrelation (FtsZ [3]; 0.4 µM FtsA, Exp. 1)	FtsZ autocorrelation (FtsZ [3]; 0.4µM FtsA, Exp. 2)	FtsZ autocorrelation T (FtsZ [3]; 0.40 µM FtsA)	FtsZ autocorrelation (FtsZ [3]; 0.8 µM FtsA, Exp. 1)	FtsZ autocorrelation (FtsZ [3]; 0.8µM FtsA, Exp. 2)	Autocorrelation Decay Tau (FtsZ [3]; replicate 1)	Autocorrelation Decay Tau (FtsZ [3]; replicate 2)	Autocorrelation Decay Tau (FtsZ [3]; replicate 3)
FtsA WT: wild-type E. coli actin-homologue FtsA, membrane anchor of FtsZ	1.23	3.38	7.01	0.8 µM	210 ± 10 nM	could not observe a significant effect	103.16 s	95.06 s	86.22 s	137.57 s	43.74 s	87.69 s	70.56 s	64.54 s	64.93 s	56.36 s	98.59 s	3.11 min	2.08 min	2.02 min
FtsA R286W (protein, Cy3 or Cy5 at the N-terminus in the labelled form (labelled CLEPTGG peptide conjugated to the 5xGly tag by sortagging); unlabelled protein also used; left off: TwinStrep-SUMO, N-terminal, cleaved | 5x) MIKATDRKLVVGLEIGTAKVAALVGEVLPDGMVNIIGVGSCPSRGMDKGGVNDLESVVKCVQRAIDQAELMADCQISSVYLALSGKHISCQNEIGMVPISEEEVTQEDVENVVHTAKSVRVRDEHRVLHVIPQEYAIDYQEGIKNPVGLSGVRMQAKVHLITCHNDMAKNIVKAVERCGLKVDQLIFAGLASSYSVLTEDERELGVCVVDIGGGTMDIAVYTGGALRHTKVIPYAGNVVTSDIAYAFGTPPSDAEAIKVRHGCALGSIVGKDESVEVPSVGGRPPWSLQRQTLAEVIEPRYTELLNLVNEEILQLQEKLRQQGVKHHLAAGIVLTGGAAQIEGLAACAQRVFHTQVRIGAPLNITGLTDYAQEPYYSTAVGLLHYGKESHLNGEAEVEKRVTASVGSWIKRLNSWLRKEF	0.81	1.79	3.36	0.8 µM	320 ± 50 nM	could not detect a difference	160.44 s	218.46 s	194.36 s	153.77 s	78.66 s	136.59 s	331.53 s	146.15 s	186.04 s	113.86 s	144.33 s	4.55 min	8.41 min	7.40 min
